The source of these data is patent US12622910B2, “Inhibitors of Bruton's tyrosine kinase and methods of their use” (Janssen Pharmaceutica NV, priority 2021, dated 2026).

Series [1] concerns PXR. In words: Puracyp DPX2 luciferase-reporter cell line (CYP3A4 induction). Format: in vitro ADME. Here is the method:
To assess the potential of the compound of Formula (III) to be a time-dependent inhibitor of CYP3A, human liver microsomes were preincubated for 30 minutes at 37° C. with the compound of Formula (III) at concentrations up to 10 μM, and CYP3A activity was measured using testosterone as a probe substrate. […] The potential of the compound of Formula (III) to induce CYPs at the transcriptional level was assessed using Puracyp™ DPX2 (CYP3A4, PXR) and DRE (CYP1A2, AhR) luciferase-reporter cell lines; rifampicin and omeprazole were used as positive controls for CYP3A and CYP1A induction, respectively. The activation by the compound of Formula (III) was <20% of positive control values for PXR (6.6% and 14.1% at 1 and 10 μM change, respectively) or AhR (0.1% and 0.3% change, respectively). […] Potential involvement of various CYP isoforms in the metabolism of the compound of Formula (III) was investigated by measuring the parent compound remaining after 1-hour incubation with the compound of Formula (III) (1 μM) with recombinant CYPs (rCYPs) at 100 pmol P450/mL in the presence of 1 mM NADPH at 37° C. The only isozyme that produced notable the compound of Formula (III) turnover with <1% parent remaining after 1-hour incubation was CYP3A4 (FIG. 24). […]

Series [2] can be described thus: Metabolic stability in hepatocytes. The series is classed as in vitro ADME, monkey. Here is the method:
Additional Data on Preclinical PK Profile—Protein binding of the compound of Formula (III) was studied using an equilibrium dialysis method in plasma from human, cynomolgus monkey, beagle dog, Sprague Dawley rat, CD-1 mouse, and guinea pig at 0.25, 2.5, and 25 μM. […] In human and monkey, the plasma protein binding was concentration dependent. […] Free fraction of the compound of Formula (III) in liver microsomes from various species ranged from 75.1% to 87.9% at 0.25 mg/mL and from 58.9% to 86.5% at 1.0 mg/mL (Table 17). […] In hepatocytes, the compound of Formula (III) turnover followed a similar trend, with T1/2 ranging from 75.3 minutes in monkey to 278.1 minutes in human.

The target in series [3] is T1, BLK (Homo sapiens, UniProt P51451).
T1 construct: purchased Eurofins Scientific
T1 sequence (P51451 whole entry): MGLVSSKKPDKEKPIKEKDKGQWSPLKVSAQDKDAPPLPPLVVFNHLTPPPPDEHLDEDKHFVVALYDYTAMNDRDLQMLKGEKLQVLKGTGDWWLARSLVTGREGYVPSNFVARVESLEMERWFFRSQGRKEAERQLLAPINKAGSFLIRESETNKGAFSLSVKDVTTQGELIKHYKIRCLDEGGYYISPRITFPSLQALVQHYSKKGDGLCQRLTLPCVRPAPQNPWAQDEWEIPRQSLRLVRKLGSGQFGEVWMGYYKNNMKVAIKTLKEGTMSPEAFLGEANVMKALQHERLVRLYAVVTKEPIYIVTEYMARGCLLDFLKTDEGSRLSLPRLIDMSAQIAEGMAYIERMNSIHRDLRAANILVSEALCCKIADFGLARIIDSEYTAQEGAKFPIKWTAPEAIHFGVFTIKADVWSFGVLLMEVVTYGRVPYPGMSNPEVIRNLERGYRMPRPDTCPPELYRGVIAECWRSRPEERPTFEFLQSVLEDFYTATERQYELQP
The series can be described thus: ActivX KiNativ native kinase profiling, Ramos cell lysates. The series is classed as binding. The note with it: activation loop labelling. The protocol:
(§1) RESULTS AND DISCUSSION—Selectivity—The compound of Formula (III) was evaluated in three selectivity panels to assess the potential for off-target pharmacology (Table 8). […] The kinase off-target profile of The compound of Formula (III) was assessed in a full human wild-type panel using radiometric kinase activity assays (KinaseProfiler™ and IC50Profiler™; Eurofins Scientific) (Table 9; FIG. 23). The compound of Formula (III) inhibited 4/278 kinases >50% at 1 micromolar, identifying BTK and the three other kinases having analogous Cys residues with the potential for covalent inhibition (BMX, TEC, BLK). […]. The cellular kinase selectivity of The compound of Formula (III) was established in native Ramos B cell kinome assays (KiNativ™; ActivX) confirmed BTK as the primary target with inhibition of BLK and TEC inhibition detected (Table 10).

Series [4] addresses T2, TEC (Homo sapiens, UniProt P42680).
T2 construct: purchased Eurofins Scientific
T2 sequence (P42680 1-631): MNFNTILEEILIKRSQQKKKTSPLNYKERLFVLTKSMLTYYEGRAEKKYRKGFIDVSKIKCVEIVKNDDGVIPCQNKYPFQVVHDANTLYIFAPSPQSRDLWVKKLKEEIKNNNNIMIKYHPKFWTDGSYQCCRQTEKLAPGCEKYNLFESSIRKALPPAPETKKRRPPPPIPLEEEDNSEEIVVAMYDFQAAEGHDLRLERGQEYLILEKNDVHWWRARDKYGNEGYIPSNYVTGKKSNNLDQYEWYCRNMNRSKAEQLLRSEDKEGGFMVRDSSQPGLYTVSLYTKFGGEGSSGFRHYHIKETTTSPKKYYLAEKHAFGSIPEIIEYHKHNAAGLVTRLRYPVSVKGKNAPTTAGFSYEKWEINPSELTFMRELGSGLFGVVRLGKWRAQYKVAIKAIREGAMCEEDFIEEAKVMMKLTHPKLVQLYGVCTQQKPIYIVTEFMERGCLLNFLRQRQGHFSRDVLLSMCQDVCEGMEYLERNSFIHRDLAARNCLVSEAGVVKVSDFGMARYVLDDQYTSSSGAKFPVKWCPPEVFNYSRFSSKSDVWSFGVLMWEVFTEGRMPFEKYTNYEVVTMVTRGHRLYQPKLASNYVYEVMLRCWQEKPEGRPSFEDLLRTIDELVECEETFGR
Described as above. The series is classed as binding. Here is the method:
as §1

In general, hepatocyte CLint refers to a measure of how fast metabolising enzymes remove a compound, apart from limits set by blood flow. A lower hepatocyte CLint goes with greater metabolic stability. Usually inhibition stands for the share of the control response that was lost under treatment. Low values mean a response near the control, high ones a response far below the control.

Each structure is given as a SMILES string.

On to `C=CC(=O)N[C@H]1CCC[C@H]1NC(=O)c1sc2nccc3c2c1NC(=O)N3c1cnc(CC(C)C)cc1C` (atropisomer, axis not shown) [compound of Formula (III), N-((1R,2S)-2-Acrylamidocyclopentyl)-5-(S)-(6-isobutyl-4-methylpyridin-3-yl)-4-oxo-4,5-dihydro-3H-1-thia-3,5,8-triazaacenaphthylene-2-carboxamide], for which the results for the “PXR activation, % of positive control (rifampicin)” value in series [1] (1 μM) and in series [1] (10 μM) were 6.6% and 14.1%, respectively. Moreover, the “Extraction Ratio, hepatocytes” value in series [2] is 0.78. The molecule further registered a hepatocyte CLint in series [2] (monkey, hepatocytes) of 66.3 µL/min/1e6 cells. Further, the half-life in series [2] (monkey, hepatocytes, read-out: T1/2, hepatocytes) was determined as 1.25 h. Moreover, the inhibition at 1 µM in series [3] is 61.9%; in series [4], 77.6%.
